65 compounds from patent US11918662B2, “Heterocyclic compounds and imaging agents for imaging huntingtin protein” (CHDI Foundation, Inc., priority 2020, dated 2024) can be followed below.

A value given as a limit tells only on which side of the number the result lay.

In general, IC50 refers to the midpoint of a concentration-inhibition curve.

T1 sequence (P42858 with tags, fused parts or gaps with the stated changes limits assumed): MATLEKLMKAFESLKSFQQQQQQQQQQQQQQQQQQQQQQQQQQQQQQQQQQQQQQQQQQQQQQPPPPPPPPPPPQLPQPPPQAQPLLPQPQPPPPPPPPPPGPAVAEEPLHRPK

One assay concerns the target T1, MBP-HTT(1-89)Q46-His(6×) (“Exon1-Q46”) protein aggregates (Homo sapiens, UniProt P42858, INS38QQQQQQQQQQQQQQQQQQQQQQQQQ).
T1 construct: MBP-HTT(1-89)Q46-His(6×); His(6×) (C); made in house
The assay is described as follows: Exon1-Q46 Radioligand Binding Assay.
Settings: not given
The method, then: Exon1-Q46 Radioligand Binding Assay
For experiments 30 μM MBP-Exon1-Q46 was incubated with 150 μg/mL thrombin in assay buffer (150 mM NaCl, 50 mM Tris pH 8.0) and 2 mM CaCl2 for 16 hours at 37° C. Aggregated Exon1-Q46 was pelleted by centrifugation for 5 minutes at 13,000 rpm in a bench top centrifuge and re-dissolved in the same volume of assay buffer. […] For the RBA, Q46 protein aggregates and test compounds were pre-incubated in assay buffer for 20 minutes at room temperature, in 100 μL/well in a 96-well plate (pp, round bottom). Then, ligand was added in 50 μL/well and incubated for 60 minutes at 37° C. Final assay concentrations were […] test compound, 1 μM Exon1-Q46 protein (equivalent monomer concentration) and 0.3 nM ligand [^3H3-methyl]-5-((5-methoxypyridin-2-yl)methoxy)-2-(pyrazin-2-yl)benzo[d]oxazole. Samples were transferred onto GF/B filter plates and washed 2× with 200 μL PBS using a Filtermate Harvester. After drying filter plates for 1 hour at 55° C., the back of the plates were sealed with foil and 30 μL/well scintillation fluid (Packard MicroScint 40) added, incubated for 15 minutes in the dark and counted in a MicroBeta reader. […] IC50 values were determined with a sigmoidal inhibition model with four variables (top, bottom, slope, IC50) in a global fit using the normalized replicate data.
For the compound `COc1ccc(NC(=O)CCCn2c(=O)c3cccn3c3ccccc32)nc1` [Example 5-5], the half-maximal inhibitory concentration (IC50) was less than 0.1 µM.

In turn, `Cn1ncc2c(=O)n(CCC(=O)Nc3ccc(F)cc3F)c3c[c]([Sn]([CH3])([CH3])[CH3])ccc3c21` [Example 26-1, N-(2,4-difluorophenyl)-3-[1-methyl-4-oxo-7-(trimethylstannyl)-1H,4H,5H-pyrazolo [4,3-c]quinolin-5-yl]propanamide] showed a half-inhibitory concentration (IC50) of less than 0.1 µM.

The same assay, now with this note: displacement of 0.3 nM [3H3-methyl]-5-((5-methoxypyridin-2-yl)methoxy)-2-(pyrazin-2-yl)benzo[d]oxazole from 1 μM aggregated Exon1-Q46, 60 minutes at 37° C.; read-out: Potency Range (IC50).
For the compound `COc1cccc(NC(=O)CCCn2c(=O)c3cccn3c3ccccc32)c1` [Example 5-3], the IC50 was less than 0.1 µM. As for `COc1ccc(NC(=O)CCn2c(=O)c3cc(C)cn3c3ccc(F)cc32)nc1` [Example 3-67], the half-inhibitory concentration (IC50) is less than 0.1 µM. As to `C[C@@H]1C[C@H](C)CN(C(=O)CCCn2c(=O)c3cccn3c3ccc(F)cc32)C1` [Example 1-2], the IC50 is less than 0.1 µM. For the compound `COc1ccnc(NC(=O)CCCn2c(=O)c3cccn3c3ncccc32)c1` [Example 4-4], the concentration for half-maximal inhibition (IC50) was less than 0.1 µM. With `CN(C)CCNC(=O)CCCn1c(=O)c2cccn2c2ccc(F)cc21` [Example 1-30], the IC50 was 0.5 to 10 µM. As to `COc1cncc(NC(=O)CCn2c(=O)c3cccn3c3ccc(F)cc32)c1` [Example 3-11], the IC50 was less than 0.1 µM. The same measure, in the same setting: the figure for `O=C(CCCn1c(=O)c2cccn2c2ccc(F)cc21)N1CCc2ccccc2C1` [Example 1-8] is less than 0.1 µM. For `COc1cccc(NC(=O)CCCn2c(=O)c3cccn3c3cnccc32)c1` [Example 6-3], the IC50 is less than 0.1 µM. In the case of `COc1ccnc(NC(=O)CCCn2c(=O)c3cccn3c3ccc(F)cc32)c1` [Example 1-44], the IC50 was less than 0.1 µM.

For the compound `COc1ccc(NC(=O)CCCn2c(=O)c3cccn3c3cccnc32)nc1` [Example 4-9], the IC50 was less than 0.1 µM. Consider `COc1ccc(NC(=O)CCCn2c(=O)c3cccn3c3cnccc32)cc1` [Example 6-2], for which the IC50 was less than 0.1 µM.

Regarding `[2H]C([2H])([2H])n1ncc2c(=O)n(CCC(=O)Nc3ccc(F)cc3F)c3cc(F)ccc3c21` [Example 19-3], the half-inhibitory concentration (IC50) was less than 0.1 µM. Still for that read-out and setting: the figure for `O=C(CCn1c(=O)c2cccn2c2ccc(F)cc21)N1CCc2ncccc2C1` [Example 3-50] is less than 0.1 µM. Same read-out and setting: the figure for `Cc1ccc(C(=O)NCCCn2c(=O)c3cccn3c3ccc(F)cc32)cc1` [Example 12-2] is less than 0.1 µM. Consider `O=C(CCCn1c(=O)c2cccn2c2ccc(F)cc21)Nc1cccc(Cl)c1` [Example 1-22], for which the half-inhibitory concentration (IC50) was less than 0.1 µM. For `O=C(CCn1c(=O)c2ccnn2c2ccc(F)cc21)Nc1ccncc1F` [Example 8-7], the IC50 is less than 0.1 µM. Same read-out and setting: in the case of `Cc1ccc(NC(=O)CCn2c(=O)c3cccn3c3ccc(F)cc32)cc1` [Example 3-2] it was less than 0.1 µM. With `Cc1ccccc1NC(=O)CCCn1c(=O)c2cccn2c2ccc(F)cc21` [Example 1-21], the IC50 was less than 0.1 µM. Same read-out and setting: the figure for `Cc1ccc(CNC(=O)CCn2c(=O)c3cc(F)cn3c3ccc(F)cc32)nc1` [Example 3-63] is less than 0.1 µM; for `COc1ncccc1NC(=O)CCn1c(=O)c2cccn2c2ccc(F)cc21` [Example 3-4] it is less than 0.1 µM; for `COC1CCN(C(=O)CCn2c(=O)c3cccn3c3ccc(F)cc32)C1` (centres unmarked) [Example 3-40] it is less than 0.1 µM.

On to `O=C(CCCn1c(=O)c2cccn2c2ccc(F)cc21)NC1CCCC1` [Example 1-28], for which the concentration for half-maximal inhibition (IC50) lay within 0.1 to 0.5 µM. Take `Cc1ccc(NC(=O)CCCn2c(=O)c3cccn3c3cnccc32)cc1` [Example 6-1]: the IC50 is less than 0.1 µM.

On to `Cn1c2c(ccc1=O)CN(C(=O)CCn1c(=O)c3cccn3c3ccc(F)cc31)CC2` [Example 3-49], for which the IC50 was less than 0.1 µM.

For the compound `COc1ccc(NC(=O)CCCn2c(=O)c3cccn3c3ccc(F)cc32)cc1` [Example 1-12], the IC50 was less than 0.1 µM. Regarding `Cn1ncc2c(=O)n(CCNC(=O)c3ccc(F)cc3F)c3cc(F)ccc3c21` [Example 16-1], the 50% inhibitory concentration (IC50) was less than 0.1 µM. With `O=C(CCCn1c(=O)c2cccn2c2ccc(F)cc21)N1CCC(C(F)(F)F)CC1` [Example 1-37], the half-inhibitory concentration (IC50) was less than 0.1 µM.

For `O=c1c2cccn2c2ccc(F)cc2n1CCCN1CCc2ccccc2C1` [Example 13-2], the IC50 is less than 0.1 µM. As to `Cc1cccc(NC(=O)CCn2c(=O)c3cnn(C)c3c3ccc(F)cc32)c1F` [Example 9-25], the IC50 is less than 0.1 µM.

For the compound `CN(C)C(=O)CCCn1c(=O)c2cccn2c2ccc(F)cc21` [Example 1-40], the IC50 was less than 0.1 µM. For `COc1ccccc1NC(=O)CCn1c(=O)c2cnn(C)c2c2ccc(F)cc21` [Example 9-3], the half-maximal inhibitory concentration (IC50) was less than 0.1 µM. Take `O=C(CCn1c(=O)c2cccn2c2ccc(F)cc21)N1CCc2ncccc21` [Example 3-59]: the concentration for half-maximal inhibition (IC50) is less than 0.1 µM. Take `COc1ccnc(NC(=O)CCCn2c(=O)c3cccn3c3ccc(OC)cc32)c1` [Example 5-10]: the IC50 was less than 0.1 µM. Consider `Cc1ccc(NC(=O)CCn2c(=O)c3cccn3c3ccccc32)cc1` [Example 29-4], for which the half-maximal inhibitory concentration (IC50) is less than 0.1 µM. With `Cc1ccc(NC(=O)CCCn2c(=O)c3cccn3c3ccc(F)cc32)cc1` [Example 1-10], the IC50 is less than 0.1 µM. With `O=C(CCn1c(=O)c2cccn2c2ccc(F)cc21)N1Cc2ccncc2C1` [Example 3-54], the 50% inhibitory concentration (IC50) was less than 0.1 µM. `COc1ccc(NC(=O)CCn2c(=O)c3cnn(C)c3c3ccc(F)cc32)nc1` [Example 9-23]: the half-inhibitory concentration (IC50) is less than 0.1 µM.

On to `[2H]C([2H])([2H])n1cc2c(=O)n(CCC(=O)Nc3ccc(F)cc3F)c3cc(F)ccc3c2n1` [Example 19-4], for which the IC50 is less than 0.1 µM.

Take `COc1ccc(NC(=O)CCCn2c(=O)c3cccn3c3cccnc32)cc1` [Example 4-7]: the IC50 is less than 0.1 µM. `O=C(CCn1c(=O)c2cc(F)cn2c2ccc(F)cc21)N1Cc2ccncc2C1` [Example 3-64]: the IC50 is less than 0.1 µM. Same read-out and setting: in the case of `O=C(CCCn1c(=O)c2cccn2c2ccc(F)cc21)NCCc1cccnc1` [Example 1-18] it was less than 0.1 µM. Still for that read-out and setting: in the case of `COc1ccc(NC(=O)[C@H]2CC[C@@H]2n2c(=O)c3cccn3c3ccccc32)nc1` (racemic) [Example 17-1, (1SR,2SR)—N-(5-Methoxypyridin-2-yl)-2-{4-oxo-4H,5H-pyrrolo[1,2-a]quinoxalin-5-yl}cyclobutane-1-carboxamide] it was less than 0.1 µM; in that of `Cn1ncc2c(=O)n(CCC(=O)N3CCc4cnccc43)c3cc(F)ccc3c21` [Example 9-10], less than 0.1 µM; in that of `O=C(CCn1c(=O)c2cccn2c2ccc(F)cc21)N1CCCC(C(F)(F)F)C1` (centres unmarked) [Example 3-41], less than 0.1 µM.

Turning to `COC1CCCN(C(=O)CCCn2c(=O)c3cccn3c3ccc(F)cc32)C1` (centres unmarked) [Example 1-42], the IC50 was less than 0.1 µM. Turning to `COc1cccc(NC(=O)CCCn2c(=O)c3cccn3c3ccncc32)c1` [Example 2-3], the IC50 is less than 0.1 µM. Consider `O=C(CCn1c(=O)c2ccnn2c2ccc(F)cc21)N1CCc2ccncc21` [Example 8-13], for which the IC50 was less than 0.1 µM. Same read-out and setting: in the case of `O=C(CCCn1c(=O)c2cccn2c2ccc(F)cc21)N1Cc2ccccc2C1` [Example 1-13] it was less than 0.1 µM; in that of `Cn1ncc2c(=O)n(CCC(=O)Nc3ccc(F)cc3F)c3ccc(F)cc3c21` [Example 21-2], less than 0.1 µM. As for `COc1cccc(NC(=O)CCCn2c(=O)c3nccn3c3ccc(F)cc32)c1` [Example 5-11], the IC50 was less than 0.1 µM. For the compound `COc1ccc(NC(=O)CCCn2c(=O)c3cccn3c3ccncc32)cc1` [Example 2-2], the concentration for half-maximal inhibition (IC50) was less than 0.1 µM.

On to `COC1CCN(C(=O)CCCn2c(=O)c3cccn3c3ccc(F)cc32)C1` (centres unmarked) [Example 1-36], for which the concentration for half-maximal inhibition (IC50) is less than 0.1 µM. As to `Cn1ncc2c(=O)n(CCC(=O)Nc3ccc(F)cc3F)c3cc(F)c(F)cc3c21` [Example 21-1], the concentration for half-maximal inhibition (IC50) was less than 0.1 µM. On to `COc1ccccc1NC(=O)CCn1c(=O)c2cccn2c2ccc(F)cc21` [Example 3-16], for which the IC50 was less than 0.1 µM. As for `COc1cccc(NC(=O)CCCn2c(=O)c3cccn3c3ncccc32)c1` [Example 4-3], the IC50 is less than 0.1 µM. Still for that read-out and setting: the figure for `O=C(CCn1c(=O)c2cccn2c2ccc(F)cc21)N1CCC(C(F)(F)F)CC1` [Example 3-42] is less than 0.1 µM; for `Cn1ncc2c(=O)n(CCC(=O)Nc3ccc(F)cc3F)c3cccc(F)c3c21` [Example 21-3] it is less than 0.1 µM; for `CC1CCC(NC(=O)CCn2c(=O)c3cccn3c3ccc(F)cc32)CC1` (centres unmarked) [Example 3-32] it is less than 0.1 µM.

Regarding `COc1ccnc(NC(=O)CCCn2c(=O)c3cccn3c3cnccc32)c1` [Example 6-5], the IC50 was less than 0.1 µM. Take `O=C(CCn1c(=O)c2cccn2c2ccc(F)cc21)N1CCc2ccncc2C1` [Example 3-52]: the concentration for half-maximal inhibition (IC50) is less than 0.1 µM. As for `O=C(CCn1c(=O)c2cccn2c2ccc(F)cc21)Nc1ccc(O)cn1` [Example 10-1, 3-{7-Fluoro-4-oxo-4H,5H-pyrrolo[1,2-a]quinoxalin-5-yl}-N-(5-hydroxypyridin-2-yl)propanamide], the half-inhibitory concentration (IC50) was less than 0.1 µM.

In the case of `O=C(CCn1c(=O)c2cccn2c2ccc(F)cc21)Nc1ccc(Cl)cc1` [Example 3-26], the half-maximal inhibitory concentration (IC50) is less than 0.1 µM.

Regarding `O=C(CCn1c(=O)c2ccnn2c2ccc(F)cc21)Nc1ccccc1F` [Example 8-2], the IC50 was less than 0.1 µM.
